The source of these data is PMC10386196, “A First-Class Degrader Candidate Targeting Both KRAS G12D and G12V Mediated by CANDDY Technology Independent of Ubiquitination” (Molecules, 2023).

The target of one series is proteasome β1 (Homo sapiens, UniProt P28072). In words: Inhibition of proteasome β1 (caspase-like) activity, Z-LLE-AMC substrate. Format: biochemical. The note with it: SE in parentheses, n = 2. The procedure:
(§1) Reaction time (min) Reaction time (min)
(§2) Figure S1. Proteasome Inhibitors Modified as Degradation Tags, Related to Figures 2
(§3) (A) Chymotrypsin-like (β5) , trypsin-like (β2) and caspase-like (β1) activities of the pr oteasome were monitor ed by Suc- LLVY-
(§4) AMC (β5 substrate) , Bz- VGR-AMC (β2 substr ate) and Z -LLE-AMC (β1 substrate), respectively. AMC fluorescence was
(§5) m onitor ed by a plate reader with excitation and emission filter s of 360 nm and 460 nm, respectively (DMSO, 30 min = 1) […]

Series [1] addresses T1, ecDHFR (Escherichia coli, UniProt P0ABQ4).
T1 construct: expressed in transfected cells; host or cells: HeLa cells (bicistronic construct co-expressing DsRed)
In words: Cellular thermal shift assay (CETSA) for ecDHFR in HeLa cells. The note with it: ecDHFR-HA-GFP-expressing HeLa cells, 3 h treatment. Format: binding. How it is done: Figure 2 Proof of principle for the CANDDY Strategy. (A) Structures of degraders 1–3 constructed with TMP and each degradation tag (CANDDY_MLN, CANDDY_ALLN, or CANDDY_BTZ). (B) Comparison of proteasomal inhibitory activity of b2 by 1–3 and each proteasome inhibitor. […] Cell extraction was treated with heat for 3 min and then analyzed via immunoblotting. (D) Degradation rates of ecDHFR by 1–3. The same procedure as in (E) was performed except for 24 h. (E) ecDHFR degradation by 1 for 24 h. The ratio of ecDHFR-HA-GFP/DsRed was detected via flow cytometry.

Another series concerns the target proteasome β2 (Homo sapiens, UniProt Q99436). In words: Inhibition of proteasome β2 (trypsin-like) activity, Bz-VGR-AMC substrate. Format: biochemical. Particulars: SE in parentheses, n = 2. The procedure:
as §1, §2, §3, §4, §5

The next series deals with proteasome β5 (Homo sapiens, UniProt P28074). In words: Inhibition of proteasome β5 (chymotrypsin-like) activity, Suc-LLVY-AMC substrate. Particulars: SE in parentheses, n = 2. Format: biochemical. The procedure: as §1, §2, §3, §4, §5
The target in series [2] is T2, KRAS G12D (Homo sapiens, UniProt P01116, G12D). In words: KRAS degradation in a cell-free system with 26S proteasome. Format: biochemical. Particulars: only 26S proteasome and target protein, 3 h at 37 °C. How it is done:
KRAS G12D (final concentration: 5 ng/µL) and 26S proteasome (final concentration: 8 nM) were incubated with TUS-007 (10, 20, 40 µM), RAS-SOS inhibitor (40 µM), RAS-SOS-NH2 (40 µM), or DMSO in 20 mM Tris-HCl buffer (pH 7.5) containing 20% glycerol for 3 h at 37 °C. To assess the effect of MLN on chemical knockdown, KRAS G12D and 26S proteasome were incubated with DMSO or TUS-007 40 µM in the presence or absence of MLN (1 µM) in the same condition. After centrifugation at 14,000× g for 10 min, the supernatants were analyzed via SDS-PAGE, followed by immunoblotting using an anti-KRAS antibody (1:1000, WH0003845MI, Sigma-Aldrich).

Series [3] can be described thus: Solubility (statement in words). Format: physicochemical. The note with it: reason not used as in vivo control.
Series [4] has as its target KRAS G12D. On the set-up: method as in PMID 22566140. The note with it: cited from earlier work.
The next series has as its target T3, KRAS G12V (Homo sapiens, UniProt P01116, G12V).
T3 construct: expressed in transfected cells; host or cells: HeLa cells
In words: KRAS G12V-HA-GFP degradation in HeLa cells. Format: cell-based. Particulars: exogenously expressed, flow cytometry and immunoblotting. The procedure: (§6) Figure 3 RAS Chemical Knockdown in vitro. (A) Structures of RAS-SOS inhibitor (4), RAS-SOS-NH2 (5), and TUS-007 as a RAS degrader. (B,C) Assessing the binding affinity of TUS-007 to targets KRAS (G12D, G12V, or wild-type) (B) and proteasome β5 (C) using CETSA. Recombinant KRAS or PSMB5 was treated with vehicle, 4, or TUS-007 for 30 min. The mixture was treated with heat and then analyzed via immunoblotting. […] KRAS-HA-GFP and DsRed-expressing HeLa cells were treated and analyzed via immunoblotting. (F) The same procedure was performed as in (D) (mean ± SEM; n = 3) except for 48 h. (G) Ubiquitination-independent proteasomal KRAS G12D degradation. KRAS G12D-HA-GFP and DsRed-expressing HeLa cells were co-treated with TUS-007 and the NAE inhibitor ([…], […]) or PYR-41 (E1 inhibitor, […]) and then analyzed via flow cytometry. […]
(§7) β5 activity β2 activity β1 activity […]
(§8) Figure S3. Proteasomal Inhibitory Activities of TUS-007 and Degradation of KRAS by TUS-007, Related to Figure 3 […]
(§9) Degradation of mutant (G12D and G12V) and wild- type KRAS pr oteins by TUS- 007 was rescued by treatment with the proteasome inhibitor M LN2238 ([…]). […] KRAS G12D-HA-GFP and DsRed-expressing HeLa cells were co-treated with TUS-007 and 17-AAG (HSP90 inhibitor, 2 ∝M), or VER-155008 (HSP70 inhibitor , 2 ∝M) for 24 h and then analyzed by flow cytometry.
(In flow cytometry, cells or beads pass a laser one at a time.)

The target of series [5] is T2, KRAS G12D. In words: KRAS G12D-HA-GFP degradation in HeLa cells. Format: cell-based. On the set-up: expressed in transfected cells; host or cells: HeLa cells. Particulars: exogenously expressed, flow cytometry and immunoblotting. The procedure:
as §6, §7, §8, §9
Target sequence in this assay (P01116 1-188 isoform P01116-2 G12D): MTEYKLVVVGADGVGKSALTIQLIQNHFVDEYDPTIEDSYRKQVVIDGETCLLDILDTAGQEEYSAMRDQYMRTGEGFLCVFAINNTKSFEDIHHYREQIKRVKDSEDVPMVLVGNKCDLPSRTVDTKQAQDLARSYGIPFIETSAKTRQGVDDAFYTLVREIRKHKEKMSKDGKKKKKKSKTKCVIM

The next series addresses T4, wild-type KRAS (Homo sapiens, UniProt P01116).
T4 construct: expressed in transfected cells; host or cells: HeLa cells
In words: Wild-type KRAS-HA-GFP degradation in HeLa cells. Format: cell-based. Particulars: exogenously expressed, flow cytometry and immunoblotting. The procedure:
as §6, §7, §8, §9

For series [6], the target named is β5/β2/β1 of the proteasome (Homo sapiens, UniProt P28072+P28074+Q99436). In words: Proteasomal inhibitory activity, stated in words for all subunits. Format: biochemical. Particulars: listed as TMP-CANDDY_MLN (1). How it is done: as §1, §2, §3, §4, §5
For series [7], the target named is T1, ecDHFR. Format: cell-based.
Protocol: Cell extraction was treated with heat for 3 min and then analyzed via immunoblotting. […] The same procedure as in (E) was performed except for 24 h. […] The ratio of ecDHFR-HA-GFP/DsRed was detected via flow cytometry.
HeLa cells co-expressed ecDHF R- HA-GF P and DsRed from a bicistronic construct.
(C) HeLa cells co-expressed ecDHFR-HA-GFP and DsRed from a bicistronic construct. Target-expressing HeLa cells were
treated with a CANDDY molecule (1).

Each structure is given as a SMILES string. Square brackets hold non-standard residues; d marks the D form. Peptide text beside a SMILES is read from it. Nle = CCCC[C@H](N)C(=O)O

T1 sequence (P0ABQ4 whole entry): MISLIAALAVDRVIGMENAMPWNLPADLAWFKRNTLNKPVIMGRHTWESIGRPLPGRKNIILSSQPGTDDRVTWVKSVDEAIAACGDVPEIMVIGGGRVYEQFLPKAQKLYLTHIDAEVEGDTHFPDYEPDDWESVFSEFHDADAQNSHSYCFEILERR
T3 sequence (P01116 1-188 isoform P01116-2 G12V): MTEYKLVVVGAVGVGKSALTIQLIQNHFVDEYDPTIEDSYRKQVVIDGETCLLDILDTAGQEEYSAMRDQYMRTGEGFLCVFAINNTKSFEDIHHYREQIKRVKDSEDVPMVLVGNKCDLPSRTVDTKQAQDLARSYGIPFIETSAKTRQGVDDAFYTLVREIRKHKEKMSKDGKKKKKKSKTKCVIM
T4 sequence (P01116 1-188 isoform P01116-2): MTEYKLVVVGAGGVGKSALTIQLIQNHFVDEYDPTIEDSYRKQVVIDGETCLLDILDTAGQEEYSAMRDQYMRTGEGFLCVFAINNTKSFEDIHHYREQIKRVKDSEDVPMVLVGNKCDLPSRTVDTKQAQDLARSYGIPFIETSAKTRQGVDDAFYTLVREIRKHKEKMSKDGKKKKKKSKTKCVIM

`CCCC[C@H](NC(=O)[C@H](CC(C)C)NC(=O)[C@H](CC(C)C)NC(C)=O)C(=O)NCCCCCCNC(=O)COc1c(OC)cc(Cc2cnc(N)nc2N)cc1OC` [compound 2]: the results for the IC50 on proteasome β1, on proteasome β2 and on proteasome β5 were > 160 µM, > 160 µM and 46.2 µM, respectively. Besides, at ecDHFR [1], the “target affinity for ecDHFR compared with TMP (CETSA)” value was “more efficient”.

Regarding `CC(C)C[C@H](NC(=O)CNC(=O)c1cc(Cl)ccc1Cl)B(O)O` [MLN2238, reference compound], the IC50 (usually the concentration at which inhibition is half-maximal) at proteasome β1 was 0.029 µM; at proteasome β2, 8.9 µM.

On to `CC[C@H](C)[C@H](N)C(=O)Nc1ccc2nc(Cc3c[nH]c4ccccc34)[nH]c2c1` [compound 4, reference compound], for which, on KRAS G12D [2], the “degradation of KRAS G12D in cell-free system” value is “not”. The solubility result in [3] was “low solubility”. On KRAS G12D [4], the Kd (usually the free concentration of one partner at which half of the binding sites on the other are occupied at equilibrium, for simple one-to-one binding) was 190 µM.

For the compound `CCCC[C@@H](C=O)NC(=O)[C@H](CC(C)C)NC(=O)[C@H](CC(C)C)NC(C)=O` [ALLN, reference compound] (Ac-Leu-Leu-[Nle]-aldehyde), the IC50 at proteasome β1 was determined as 9.8 µM; on proteasome β2, 4.3 µM; on proteasome β5 it was 1 µM.

Turning to `COc1cc(Cc2cnc(N)nc2N)cc(OC)c1OCC(=O)NCCCCCCNC(=O)[C@H](CC(C)C)NC(=O)[C@H](Cc1ccccc1)NC(=O)c1cnccn1` [compound 3], the IC50 on proteasome β1, at proteasome β2 and on proteasome β5 was > 160 µM throughout. At ecDHFR [1], the “target affinity for ecDHFR compared with TMP (CETSA)” value is listed as “lower”.

Take `CC[C@H](C)[C@H](NC(=O)CCCCCCN)C(=O)Nc1ccc2[nH]c(Cc3c[nH]c4ccccc34)nc2c1` [compound 5]: the “KRAS G12V degradation in HeLa cells” value on KRAS G12V is reported as “no degradation”. Moreover, on KRAS G12D [5], the “KRAS G12D degradation in HeLa cells” value is recorded as “no degradation”. In addition, the “degradation of KRAS G12D in cell-free system” value at KRAS G12D [2] is reported as “not”. Besides, the solubility entry in [3] was “low solubility”. Besides, the “wild-type KRAS degradation in HeLa cells” value on wild-type KRAS is “no degradation”.

Consider `COc1cc(Cc2cnc(N)nc2N)cc(OC)c1OCC(=O)NCCCCCCNC(=O)[C@H](CC(C)C)NC(=O)CNC(=O)c1cc(Cl)ccc1Cl` [compound 1], for which the IC50 at proteasome β1, on proteasome β2 and at proteasome β5 was > 160 µM in each case. Besides, the “target affinity for ecDHFR compared with TMP (CETSA)” value on ecDHFR [1] is reported as “more efficient”. Besides, the “proteasomal inhibitory activity (β5, β2, β1)” value in series [6] is “almost no proteasomal inhibitory activity”. For the same compound, the ecDHFR degradation result at ecDHFR [7] (HeLa cells, 24 h, immunoblotting and flow cytometry (GFP/DsRed)) is on record as “highest target degradation efficiency”. The “time dependence of ecDHFR degradation” value at ecDHFR [7] (HeLa cells, flow cytometry) is given as “time-dependent ecDHFR degradation”. In addition, the “ecDHFR degradation on co-treatment with inhibitors of E1 or E3” value on ecDHFR [7] (co-treatment with NAE inhibitor (E3) or PYR-41 (E1), flow cytometry) is “did not inhibit ecDHFR degradation”.
